Counter-ions that a name gives are not always drawn. Like-named read-outs stand apart in the source and are kept apart here.
How the values were obtained:
T cells = test: T cell phenotype after expansion with LSD1 shRNA; type: cell-based, human; details: for enrichment of TSCM in resulting CD4+ T cell population: vs normal expansion
Description: Flow cytometry was performed on a four laser Fortessa (Becton-Dickinson).
T cells were isolated by negative selection and expanded with anti-CD3/CD28 beads at a 3:1 ratio for 10 days. On day 1, T cells were transduced with lentiviral expression vectors containing LSD1 shRNA targeting sequences that co-expressed the fluorescent protein mCherry. Following expansion, T cell phenotypes of mCherry+ T cells were assessed by flow cytometry.

Pan CD3+ T cells = test: Dose response of LSD1 inhibitors on T cell phenotypes; details: for CD4+ Tscm percentage: at 100 nM; for EC50: Homo sapiens, T-cell
Description: Cells were isolated from in vitro culture, washed once in MACS+0.5% BSA buffer, and stained on ice using either biotinylated Protein L followed by incubated with a fluorochrome-conjugated streptavidin reagent or an antibody recognizing the given target antigen. In all analyses, the population of interest was gated based on forward vs side scatter characteristics, followed by singlet gating, and live cells were gated.
The following parameters were investigated: • 1. Ratio of CD8/CD4 were calculated; • 2. % Tscm, Tem, Tem of CD3+ T cells; • 3. Ratios of Tscm/Tem and Tscm/Tcm of CD3+ T cells were calculated; • 4. % Tscm, Tem, Tem of CD8+ or CD4+ T cells were calculated; • 5. Ratios of Tscm/Tem and Tscm/Tcm of CD8+ or CD4+ T cells were calculated; and/or • 6. In the case of CAR+-T cells, percentage of Tscm, Tem, Tem of CD19-CAR+ T, and BCMA-10-CAR+ T cells were evaluated.
The Tscm population were evaluated as double CD45RA+CCR7+ or triple CD45RA+CCR7+CD62L+ in a given total live CD3+ or subset CD4+ or CD8+ T cell population. Tem were presented as double CD45RA−CCR7− and Tem as CD45RA−CCR7+ in a given total live CD3+ or subset CD4+ or CD8+ T cell population (FIG. 19 and FIG. 25 illustrate the gating strategies).
In all instances, LSD inhibitor compounds were either resuspended in water (H2O) and/or DMSO, depending on compound solubility. In all instances compounds were added throughout the ex vivo T cell culture, and T cells were washed extensively prior to assay. […] In the figures, “control” refers to vehicle with no LSD inhibitor compound added. For Pan CD3+ T cell expansion experiment, compound treatment was started at 4 h or 24 h after activation; for CART cell production, compound treatment was started at 48 h after viral transduction, and all treatments continued through culture period in all conditions.
Compounds were refreshed every 2-3 days when fresh media is replenished. Following 10 days of expansion, T cells were harvested and de-beaded and their phenotypes were analyzed by flow cytometry using antibodies against CD3, CD4, CD8, CD45RA, CCR7, CD62L, CD27 and CD28 plus live/dead dye to exclude the dead cell population.

full-length LSD1 = target: T1, full-length LSD1 (Homo sapiens, UniProt O60341); test: FL-LSD1 LC-MS assay; type: biochemical; details: 0.4 nM FL-LSD1, H3K4me1 peptide substrate, 60 min room temperature; read-out: LCMS IC50 (LSD1 IC50 as measured by LCMS)
T1 construct: the full-length LSD1 and 0.5 pM FAD in reaction buffer
From the text: Representative compounds of the present disclosure were serially and separately diluted 3-fold in DMSO to obtain a total of twelve concentrations. […] The data were then fit to a dose response equation using the program Helios to get the IC50 values of the test compound.

[1] = anti-CD3/CD28 beads 3:1, 10 days, mCherry+ cells

Molecule: LSD1 2: shRNA to LSD1, sequence encoding shRNA SEQ ID NO: 127 (DNA CAGAAGGCCTAGACATTAAACCTCGAGGTTTAATGTCTAGGCCTTCTGTTTTTTGA)
- enrichment of TSCM in resulting CD4+ T cell population (T cells; CD4+ T cells): enriched in TSCM
- percentage of CD8+ T cells having the TSCM phenotype (CD45RA+CD62L+CCR7+CD27+CD95+) (T cells; [1]): ~50%

Molecule: Cc1cc2c(cc1C#N)c(-c1cccc(N)c1C)cn2[C@H]1CC[C@H](O)CC1 [Compound 93, Trans-3-(3-amino-2-methylphenyl)-1-(4-hydroxycyclohexyl)-6-methyl-1H-indole-5-carbonitrile]
- CD4+ Tscm percentage (Pan CD3+ T cells): about 5%

Molecule: c1ccc([C@@H]2C[C@H]2NC2CCNCC2)cc1 (relative stereo) [LSD1i-GSK, rel-N-[(1R,2S)-2-Phenylcyclopropyl]-4-Piperidinamine hydrochloride (1:2)]
- total expansion rate of total cells (Pan CD3+ T cells; 10 day expansion): without changing the total expansion rate of total cells
- ratio of CD8/CD4 (Pan CD3+ T cells; 10 day expansion, dose escalation): can significantly increase the ratio of CD8/CD4
- EC50 (Pan CD3+ T cells; read-out: EC50 for inducing Tscm CD3+ T cells): 1.08 nM
- EC50 (Pan CD3+ T cells; read-out: EC50 for inducing Tscm CD8+ T cells): 1.08 nM
- CD4+ Tscm percentage (Pan CD3+ T cells): about 5%
- ratio of Tscm/Tem of CD3+ T cells (Pan CD3+ T cells; dose elevation, Tscm/Tcm unchanged): increases in response to dose elevation
- ratio of Tscm/Tem of CD8+ T cells (Pan CD3+ T cells; dose elevation, hardly seen in the CD4+ population): significantly increases in response to dose elevation
- CD3+ Tscm and Tem percentage (Pan CD3+ T cells; observed between 1 nM to 100 nM, Tcm remain the same): could increase/sustain CD3+ Tscm, decrease Tem, in a dose responsive fashion
- CD8+ Tscm, CD4+ Tscm and Tem percentage (Pan CD3+ T cells; observed between 1 nM to 100 nM, Tcm unchanged): could increase/sustain CD8+ Tscm and CD4+ Tscm, decrease Tem, in a dose responsive fashion

Molecule: Cc1ccc(-c2ncc(OC[C@@H]3CCNC3)cc2-c2ccc(C#N)cc2)cc1 [Compound C, (R)-4-(5-(pyrrolidin-3-ylmethoxy)-2-(p-tolyl)pyridin-3-yl)benzonitrile]
- IC50 (full-length LSD1): 30 nM

B1: LSD1 1A: shRNA to LSD1, sequence encoding shRNA SEQ ID NO: 125 (nucleic acid)
DNA: CGGTTGCTAGAAGCTACATCTGTTAATATTCATAGCAGATGTAGCTTCTAGCAACCGTTTTTTGA
- enrichment of TSCM in resulting CD4+ T cell population (T cells; CD4+ T cells): enriched in TSCM
- percentage of CD8+ T cells having the TSCM phenotype (CD45RA+CD62L+CCR7+CD27+CD95+) (T cells; [1]): ~50%

B2: LSD1 1B: shRNA to LSD1, sequence encoding shRNA SEQ ID NO: 126 (nucleic acid)
DNA: CGGTTGCTAGAAGTTACATTTGTTAATATTCATAGCAGATGTAGCTTCTAGCAACCGTTTTTTGA
- percentage of CD4+ T cells having the TSCM phenotype (CD45RA+CD62L+CCR7+CD27+CD95+) (T cells; CD4+ T cells, anti-CD3/CD28 beads 3:1, 10 days, mCherry+ cells): up to 20%
- percentage of CD8+ T cells having the TSCM phenotype (CD45RA+CD62L+CCR7+CD27+CD95+) (T cells; [1]): ~50%
